Experimental data taken from patent US10975049B2, “Nicotinyl alcohol ether derivative, preparation method therefor, and pharmaceutical composition and uses thereof” (Institute of Materia Medica, Chinese Academy of Medical …, priority 2016, dated 2021).
Structures can show the parent of a compound that is named as a salt.

Key:
[1] = target: interaction between PD-1 and PD-L1 (Homo sapiens (Human), UniProt Q9NZQ7); test: Cisbio PD-1/PD-L1 binding assay kit (HTRF); conditions: molecular level, read-out: IC50 (M), inhibitory activity on the interaction between PD-1 and PD-L1
Description: 1. In vitro activity evaluation: Cisbio PD-1/PD-L1 binding assay kit was applied for the detection method of in vitro enzymology level.
Screening Principles and Methods of PD-1/PD-L1 Small Molecule Inhibitors
1) Principle: PD-1 protein is with HIS tag, and PD-1 ligand PD-L1 is with hFc tag. Eu labeled anti-hFc antibody and XL665 labeled anti-HIS antibody are combined with the above two label proteins respectively. After laser excitation, energy can be transferred from donor Eu to receptor XL665, allowing XL665 to glow.
2) Experimental method: The specific method can be referred to Cisbio's PD-1/PD-L1 Kit (item 64CUS000C-2). Reagents should be dispensed in the following order. For 384-well white ELISA plate, 2 μl of diluent or target compound diluted with diluent was added to each well, and then 4 μl of PD-1 protein and 4 μl of PD-L1 protein were added per well, incubated for 15 min at room temperature; and 10 μl of a mixture of anti-Tag1-Eu3^+ and anti-Tag2-XL665 was added per well and incubated for 1 h to 4 h at room temperature and the fluorescence signals at 665 nm and 620 nm were measured with an Envison instrument. HTRF rate=(665 nm/620 nm)*10^4. 8-10 concentrations were detected for each compound and IC50 was calculated by Graphpad software.

mouse colon cancer MC38 = test: Subcutaneous xenograft model of mouse colon cancer MC38; assay type: in vivo, C57BL/6 or Bablc mice; conditions: 60 mg/kg
Description: (§1) The method in subcutaneous xenograft tumor was as follows. The cultured specific tumor cells were digested and collected by centrifugation, and washed with sterile physiological saline for two times and then counted. The cell concentration was adjusted to 5×10^6/ml by physiological saline, and 0.2 ml of cell suspension was inoculated to the right armpit of C57BL/6 or Bablc mice. After inoculation, the animals were randomly divided into two groups in next day. Each group had 6-7 mice. After weighing, the animals were dosed once each day to monitor tumor size. When the tumor size reached to a certain size, the mice was weighed and blood was collected from mice orbit and then the mice were killed by removing the neck. The tumor tissue, thymus tissue and spleen tissue were collected and weighed respectively. Finally, the tumor growth inhibition rate was calculated, and the tumor growth inhibition rate was used to evaluate the level of anti-tumor effect.

[2] = system: high metastatic melanoma B16F10; test: Lung metastasis model of high metastatic melanoma B16F10; assay type: in vivo, C57BL/6 mice; conditions: for Tumor number X ± SD: lung; for T/C % (relative tumor proliferation rate) / TGI % (tumor growth inhibition rate): tumor number
Description: The method in B16F10 lung metastasis model was as follows. The cultured B16F10 tumor cells were digested and centrifuged and washed for two times with sterile physiological saline and then counted. And the cell concentration was adjusted to 2.5×10^6/ml by physiological saline. 0.2 ml of cells were injected into the C57BL/6 mice through the tail vein, and the tumor cells will gather in the lung of the mice. After inoculation, the animals were randomly divided into two groups in next day. Each group had 6-7 mice. After weighing, the animals were dosed once each day. After 3 weeks, the mice were weighed and killed, the lung tissue was collected and weighed, and the number of lung tumors was counted after being fixed by the Bouin's Fluid. Finally, the tumor growth inhibition rate was calculated, and the tumor growth inhibition rate was used to evaluate the level of anti-tumor effect.
(§2) In the study of the mechanism of the above models, the method of flow cytometry was adopted in measuring the total cell proportion of T cells of various types. The specific steps were as follows. The samples were treated at first. For blood tissue, the orbital blood was taken. The red cell lysate was used to remove the red blood cells, and then the PBS buffer was used for wash. After being washed, the cells were collected. For the tumor and spleen, the tissues were grinded with a homogenizer, and then diluted with PBS buffer, then filtered by 300 meshes of screen. After the number of cells was counted for each sample, 1×10^6 cells were added into EP tube and stained for flow antibody. After incubation for 1 h on ice, each sample was washed 2 times with PBS buffer. The cell population was analyzed by VERSE flow instrument of BD Company. The total number of cells in tumor tissue was 1×10^5 and the total number of cells in blood and spleen tissues was 1×10^4. The ratio of T cells to total number of cells was analyzed after flow cytometry.

[3] = system: high metastatic melanoma B16F10; test: Subcutaneous xenograft model of high metastatic melanoma B16F10; assay type: in vivo, C57BL/6 or Bablc mice; conditions: for T/C % (relative tumor proliferation rate) / TGI % (tumor growth inhibition rate): tumor weight
Description: as §1, §2

mouse breast cancer EMT6 = test: Subcutaneous xenograft model of mouse breast cancer EMT6; assay type: in vivo, C57BL/6 or Bablc mice
Description: as §1

[4] = spleen, CTX group, dose not given

Chain of interaction between PD-1 and PD-L1 (Q9NZQ7 19-238): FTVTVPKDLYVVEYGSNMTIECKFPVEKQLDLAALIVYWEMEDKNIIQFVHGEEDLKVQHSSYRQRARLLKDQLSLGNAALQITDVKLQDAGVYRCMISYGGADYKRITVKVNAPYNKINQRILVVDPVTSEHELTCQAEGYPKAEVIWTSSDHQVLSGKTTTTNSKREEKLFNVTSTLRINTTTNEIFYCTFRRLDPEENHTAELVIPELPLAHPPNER

`CS(=O)(=O)NCCNCc1cc(Cl)c(OCc2cccc(-c3ccccc3)c2Br)cc1OCc1cccnc1` [Example 16, N-(2-methanesulfonaminoethyl)-4-(2-bromo-3-phenylbenzyloxy)-5-chloro-2-(pyridin-3-yl-methyleneoxy)benzylamine] showed an IC50 [1] of 1.99e-07 M.
`O=C(O)CNCc1cc(Cl)c(OCc2cccc(-c3ccccc3)c2Br)cc1OCc1cccnc1` [Example 12, N-(4-(2-bromo-3-phenylbenzyloxy)-5-chloro-2-(pyridin-3-yl-methyleneoxy)benzyl) glycine] showed an IC50 [1] of 4.11e-08 M.
For `CC(C)C(NCc1cc(Cl)c(OCc2cccc(-c3ccccc3)c2Br)cc1OCc1cccnc1)C(=O)O` (stereo not shown) [Example 13, N-(4-(2-bromo-3-phenylbenzyloxy)-5-chloro-2-(pyridin-3-yl-methyleneoxy)benzyl) valine], the IC50 [1] was 2e-07 M.
`O=C(O)[C@@H](CO)NCc1cc(Cl)c(OCc2cccc(-c3ccccc3)c2Br)cc1OCc1cccnc1` [Example 8, (R)—N-(4-(2-bromo-3-phenylbenzyloxy)-5-chloro-2-(pyridin-3-yl-methyleneoxy)benzyl) serine] was tested, and the IC50 [1] was 4.29e-08 M.
`CC(=O)NCCNCc1cc(Cl)c(OCc2cccc(-c3ccccc3)c2Br)cc1OCc1cccnc1` [Example 17, N-(2-acetylaminoethyl)-4-(2-bromo-3-phenylbenzyloxy)-5-chloro-2-(pyridin-3-yl-methyleneoxy) benzylamine] showed an IC50 [1] of 5.51e-07 M.
In the case of `O=C(O)[C@H](Cc1ccc(O)cc1)NCc1cc(Cl)c(OCc2cccc(-c3ccccc3)c2Br)cc1OCc1cccnc1` [Example 21, N-(4-(2-bromo-3-phenylbenzyloxy)-5-chloro-2-(pyridin-3-yl-methyleneoxy)benzyl) tyrosine], the IC50 [1] is reported as 4.06e-07 M.
With `O=P1(N(CCCl)CCCl)NCCCO1` (stereo not shown) [Cyclophosphamide (CTX), Cyclophosphamide, reference compound] the “T/C % (relative tumor proliferation rate)” value (mouse colon cancer MC38) was 5.4%, the “TGI % (tumor growth inhibition rate)” value (mouse colon cancer MC38) was 94.6% and the “Tumor weight(g) Mean ± SD” value (mouse colon cancer MC38) was 0.17 ± 0.05 g. For the same compound, the “Body weight (g) Mean ± SD Begin” value (mouse colon cancer MC38; begin) was 17.9 ± 0.6 g, the “Body weight (g) Mean ± SD End” value (mouse colon cancer MC38; end) was 19.1 ± 0.8 g and the “Body weight (g) Mean ± SD Begin” value ([2]; 80 mg/kg) was 20.1 ± 0.8 g. The “Body weight (g) Mean ± SD End” value ([2]; 80 mg/kg) was 21.4 ± 0.5 g, the “Tumor number X ± SD” value ([2]; 80 mg/kg) was 18 ± 14 and the “T/C % (relative tumor proliferation rate)” value ([2]; 80 mg/kg) was 85.7%. The “TGI % (tumor growth inhibition rate)” value ([2]; 80 mg/kg) was 14.3%, the “CD3+ percentage of T lymphocyte in mouse blood” value (“CD3+ percentage of T lymphocyte” below) ([2]; CTX group, dose not given) was 22.4 ± 5.5% and the “CD4+ percentage of T lymphocyte in mouse blood” value (“CD4+ percentage of T lymphocyte” for short) ([2]; CTX group, dose not given) was 13.0 ± 2.4%. The “CD8+ percentage of T lymphocyte in mouse blood” value (from here on “CD8+ percentage of T lymphocyte”) ([2]; CTX group, dose not given) was 7.5 ± 2.4%, the “Tumorweight(g) X ± SD” value ([3]; 80 mg/kg) was 1.55 ± 0.59 g and the “Body weight (g) Mean ± SD Begin” value ([3]; 80 mg/kg) was 20.3 ± 0.8 g. For the same compound, the “Body weight (g) Mean ± SD End” value ([3]; 80 mg/kg) was 23.3 ± 1.4 g, the “T/C % (relative tumor proliferation rate)” value ([3]; 80 mg/kg) was 60.00% and the “TGI % (tumor growth inhibition rate)” value ([3]; 80 mg/kg) was 40.00%. The “CD3+ (%) T lymphocytes in spleen” value [3, 4] was 78.6 ± 2.5%, the “CD4+ (%) T lymphocytes in spleen” value [3, 4] was 24.6 ± 2.6% and the “CD8+ (%) T lymphocytes in spleen” value [3, 4] was 15.2 ± 3.1%. For the same compound, the “CD3+ (%) tumor-infiltrating T lymphocytes” value ([3]; CTX group, dose not given) was 3.6 ± 1.5%, the “CD4+ (%) tumor-infiltrating T lymphocytes” value ([3]; CTX group, dose not given) was 1.7 ± 0.4% and the “CD8+ (%) tumor-infiltrating T lymphocytes” value ([3]; CTX group, dose not given) was 1.4 ± 0.3%. For the same compound, the “T/C % (relative tumor proliferation rate)” value (mouse breast cancer EMT6; 60 mg/kg) was 14.1%, the “TGI % (tumor growth inhibition rate)” value (mouse breast cancer EMT6; 60 mg/kg) was 85.9% and the “Tumorweight(g) X ± SD” value (mouse breast cancer EMT6; 60 mg/kg) was 0.25 ± 0.17 g. The “Body weight (g) Mean ± SD Begin” value (mouse breast cancer EMT6; 60 mg/kg, begin) was 18.4 ± 0.3 g, the “Body weight (g) Mean ± SD End” value (mouse breast cancer EMT6; 60 mg/kg, end) was 19.4 ± 0.7 g and the “tumor growth inhibition rate” value (mouse breast cancer EMT6; Cyclophosphamide alone vs combination, dose not restated) was 85%.
In the case of `C/C(=C\C#N)NCc1cc(Cl)c(OCc2cccc(-c3ccccc3)c2Br)cc1OCc1cccnc1` [Example 14, (E)-3-(4-(2-bromo-3-phenylbenzyloxy)-5-chloro-2-(pyridin-3-yl-methyleneoxy)benzylamino) but-2-enenitrile], the IC50 [1] is reported as 2.69e-05 M.
For `CCOC(=O)C(CO)NCc1cc(Cl)c(OCc2cccc(-c3ccccc3)c2Br)cc1OCc1cccnc1` (stereo not shown) [Example 1, Ethyl N-(4-(2-bromo-3-phenylbenzyloxy)-5-chloro-2-(pyridin-3-yl-methyleneoxy)benzyl) serinate dihydrochloride], the IC50 [1] was 1.48e-07 M.
`CC(C)C[C@H](NCc1cc(Cl)c(OCc2cccc(-c3ccccc3)c2Br)cc1OCc1cccnc1)C(=O)O` [Example 20, N-(4-(2-bromo-3-phenylbenzyloxy)-5-chloro-2-(pyridin-3-yl-methyleneoxy)benzyl) leucine] was tested, and the IC50 [1] was 6.1e-08 M.
`CCOC(=O)[C@H](CO)NCc1cc(Cl)c(OCc2cccc(-c3ccccc3)c2Br)cc1OCc1cccnc1.Cl.Cl` [Example 5, (S)-Ethyl N-(4-(2-bromo-3-phenylbenzyloxy)-5-chloro-2-(pyridin-3-yl-methyleneoxy)benzyl) serinate dihydrochloride] was tested, and the “Body weight (g) Mean ± SD Begin” value ([2]; 15 mg/kg) was 20.6 ± 0.7 g, the “Body weight (g) Mean ± SD End” value ([2]; 15 mg/kg) was 20.2 ± 1.5 g and the “Tumor number X ± SD” value ([2]; 15 mg/kg) was 18 ± 18. For the same compound, the “T/C % (relative tumor proliferation rate)” value ([2]; 15 mg/kg) was 85.7%, the “TGI % (tumor growth inhibition rate)” value ([2]; 15 mg/kg) was 14.3% and the “Body weight (g) Mean ± SD Begin” value ([2]; 45 mg/kg) was 20.5 ± 0.6 g. The “Body weight (g) Mean ± SD End” value ([2]; 45 mg/kg) was 21.2 ± 0.7 g, the “Tumor number X ± SD” value ([2]; 45 mg/kg) was 16 ± 7 and the “T/C % (relative tumor proliferation rate)” value ([2]; 45 mg/kg) was 76.2%. For the same compound, the “TGI % (tumor growth inhibition rate)” value ([2]; 45 mg/kg) was 23.8%, the “CD3+ percentage of T lymphocyte” value ([2]; 15 mg) was 22.7 ± 4.8% and the “CD4+ percentage of T lymphocyte” value ([2]; 15 mg) was 14.4 ± 3.3%. For the same compound, the “CD8+ percentage of T lymphocyte” value ([2]; 15 mg) was 7.4 ± 1.9%, the “CD3+ percentage of T lymphocyte” value ([2]; 45 mg) was 25.8 ± 3.0% and the “CD4+ percentage of T lymphocyte” value ([2]; 45 mg) was 15.7 ± 2.5%. The “CD8+ percentage of T lymphocyte” value ([2]; 45 mg) was 7.6 ± 1.8%, the “percentage of lymphocyte in mouse blood” value ([2]; result in words) was “increase” and the “Tumorweight(g) X ± SD” value ([3]; 15 mg/kg) was 2.69 ± 1.99 g. For the same compound, the “Body weight (g) Mean ± SD Begin” value ([3]; 15 mg/kg) was 20.4 ± 1.0 g, the “Body weight (g) Mean ± SD End” value ([3]; 15 mg/kg) was 24.2 ± 2.2 g and the “T/C % (relative tumor proliferation rate)” value ([3]; 15 mg/kg) was 104.26%. For the same compound, the “TGI % (tumor growth inhibition rate)” value ([3]; 15 mg/kg) was −4.26%, the “Tumorweight(g) X ± SD” value ([3]; 45 mg/kg) was 1.41 ± 0.60 g and the “Body weight (g) Mean ± SD Begin” value ([3]; 45 mg/kg) was 20.3 ± 1.0 g. For the same compound, the “Body weight (g) Mean ± SD End” value ([3]; 45 mg/kg) was 22.6 ± 1.4 g, the “T/C % (relative tumor proliferation rate)” value ([3]; 45 mg/kg) was 54.73% and the “TGI % (tumor growth inhibition rate)” value ([3]; 45 mg/kg) was 45.27%. For the same compound, the “proportion of tumor-infiltrating lymphocytes” value ([3]; result in words) was “increase”, the “CD3+ (%) tumor-infiltrating T lymphocytes” value ([3]; 45 mg) was 10.1 ± 4.5% and the “CD4+ (%) tumor-infiltrating T lymphocytes” value ([3]; 45 mg) was 9.0 ± 4.7%. The “CD8+ (%) tumor-infiltrating T lymphocytes” value ([3]; 45 mg) was 5.2 ± 2.8%.
